# Source: PubChem BioAssay (NCI)
# Several values for one entry are separate records, joined by “and”; a condition that tells them apart may be missing. Equal values may be shown once.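 Exposure lasted 48 hours, with cells grown in 96-well plates and compounds tested at five concentrations. GI50: concentration for 50% inhibition of growth. The concentration for full growth arrest is given as TGI.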
# Experiments:
# Assay in all cases: DTP human tumour cell line panel, 48 h
# [1] = system: K-562 leukemia
# [2] = system: SR leukemia
# [3] = system: U251 CNS
# [4] = system: 786-0 renal
# [5] = system: A549 NSCLC
# [6] = system: ACHN renal
# [7] = system: BT-549 breast
# [8] = system: CAKI-1 renal
# [9] = system: CCRF-CEM leukemia
# [10] = system: COLO 205 colon
# [11] = system: DU-145 prostate
# [12] = system: EKVX NSCLC
# [13] = system: HCC-2998 colon
# [14] = system: HCT-116 colon
# [15] = system: HCT-15 colon
# [16] = system: HOP-62 NSCLC
# [17] = system: HOP-92 NSCLC
# [18] = system: HS 578T breast
# [19] = system: HT29 colon
# [20] = system: IGROV1 ovarian
# [21] = system: KM12 colon
# [22] = system: LOX IMVI melanoma
# [23] = system: MALME-3M melanoma
# [24] = system: MCF7 breast
# [25] = system: MDA-MB-231 breast
# [26] = system: MDA-MB-435
# [27] = system: MOLT-4 leukemia
# [28] = system: NCI-H226 lung
# [29] = system: NCI-H23 lung
# [30] = system: NCI-H460 lung
# [31] = system: NCI-H522 lung
# [32] = system: NCI/ADR-RES ovarian
# [33] = system: OVCAR-3 ovarian
# [34] = system: OVCAR-4 ovarian
# [35] = system: OVCAR-5 ovarian
# [36] = system: OVCAR-8 ovarian
# [37] = system: PC-3 prostate
# [38] = system: RPMI-8226 leukemia
# [39] = system: RXF 393 renal
# [40] = system: SF-268 CNS
# [41] = system: SF-295 CNS
# [42] = system: SF-539 CNS
# [43] = system: SK-MEL-2 melanoma
# [44] = system: SK-MEL-28 melanoma
# [45] = system: SK-MEL-5 melanoma
# [46] = system: SK-OV-3 ovarian
# [47] = system: SN12C renal
# [48] = system: SNB-19 CNS
# [49] = system: SW-620 colon
# [50] = system: T-47D breast
# [51] = system: TK-10 renal
# [52] = system: UACC-257 melanoma
# [53] = system: UACC-62 melanoma
# [54] = system: UO-31 renal
# [55] = system: A498 renal
# [56] = system: HL-60(TB) leukemia
# [57] = system: M14 melanoma
smiles,measurement,setting,value
C=C(CNCCc1ccc(O)cc1)[C@@H]1CC[C@]2(COC3CCCCO3)CC[C@]3(C)[C@H](CC[C@@H]4[C@@]5(C)CCC(N)C(C)(C)[C@@H]5CC[C@]43C)[C@@H]12 (stereo not given in full),GI50,[1],0.305 µM
same,TGI,[1],> 100 µM
same,GI50,[2],0.289 µM
same,TGI,[2],> 100 µM
same,GI50,[3],0.306 µM
same,TGI,[3],> 100 µM
CC(C)C[C@@H]1NC(=O)[C@@H]2CCCN2C(=O)[C@@H]2CCCN2C(=O)[C@H](CC(C)C)NC(=O)[C@H](CO)NC(=O)[C@H](CCCCN)NC(=O)[C@H]([C@H](C)O)NC(=O)[C@@H]2CCCC[C@@H](NC1=O)C(=O)N[C@@H](Cc1ccccc1)C(=O)N1CCC[C@H]1C(=O)N[C@@H](CC(=O)O)C(=O)NCC(=O)N[C@@H](CCCN=C(N)N)C(=O)N2,GI50,[4],> 50 µM
same,TGI,[4],> 50 µM
same,GI50,[5],> 50 µM
same,TGI,[5],> 50 µM
same,GI50,[6],> 50 µM
same,TGI,[6],> 50 µM
same,GI50,[7],> 50 µM
same,TGI,[7],> 50 µM
same,GI50,[8],> 50 µM
same,TGI,[8],> 50 µM
same,GI50,[9],> 50 µM
same,TGI,[9],> 50 µM
same,GI50,[10],> 50 µM
same,TGI,[10],> 50 µM
same,GI50,[11],> 50 µM
same,TGI,[11],> 50 µM
same,GI50,[12],> 50 µM
same,TGI,[12],> 50 µM
same,GI50,[13],> 50 µM
same,TGI,[13],> 50 µM
same,GI50,[14],> 50 µM
same,TGI,[14],> 50 µM
same,GI50,[15],> 50 µM
same,TGI,[15],> 50 µM
same,GI50,[16],> 50 µM
same,TGI,[16],> 50 µM
same,GI50,[17],> 50 µM
same,TGI,[17],> 50 µM
same,GI50,[18],> 50 µM
same,TGI,[18],> 50 µM
same,GI50,[19],> 50 µM
same,TGI,[19],> 50 µM
same,GI50,[20],> 50 µM
same,TGI,[20],> 50 µM
same,GI50,[1],> 50 µM
same,TGI,[1],> 50 µM
same,GI50,[21],> 50 µM
same,TGI,[21],> 50 µM
same,GI50,[22],> 50 µM
same,TGI,[22],> 50 µM
same,GI50,[23],> 50 µM
same,TGI,[23],> 50 µM
same,GI50,[24],> 50 µM
same,TGI,[24],> 50 µM
same,GI50,[25],> 50 µM
same,TGI,[25],> 50 µM
same,GI50,[26],> 50 µM
same,TGI,[26],> 50 µM
same,GI50,[27],> 50 µM
same,TGI,[27],> 50 µM
same,GI50,[28],> 50 µM
same,TGI,[28],> 50 µM
same,GI50,[29],> 50 µM
same,TGI,[29],> 50 µM
same,GI50,[30],> 50 µM
same,TGI,[30],> 50 µM
same,GI50,[31],> 50 µM
same,TGI,[31],> 50 µM
same,GI50,[32],> 50 µM
same,TGI,[32],> 50 µM
same,GI50,[33],> 50 µM
same,TGI,[33],> 50 µM
same,GI50,[34],> 50 µM
same,TGI,[34],> 50 µM
same,GI50,[35],> 50 µM
same,TGI,[35],> 50 µM
same,GI50,[36],> 50 µM
same,TGI,[36],> 50 µM
same,GI50,[37],> 50 µM
same,TGI,[37],> 50 µM
same,GI50,[38],> 50 µM
same,TGI,[38],> 50 µM
same,GI50,[39],> 50 µM
same,TGI,[39],> 50 µM
same,GI50,[40],> 50 µM
same,TGI,[40],> 50 µM
same,GI50,[41],> 50 µM
same,TGI,[41],> 50 µM
same,GI50,[42],> 50 µM
same,TGI,[42],> 50 µM
same,GI50,[43],> 50 µM
same,TGI,[43],> 50 µM
same,GI50,[44],> 50 µM
same,TGI,[44],> 50 µM
same,GI50,[45],> 50 µM
same,TGI,[45],> 50 µM
same,GI50,[46],> 50 µM
same,TGI,[46],> 50 µM
same,GI50,[47],> 50 µM
same,TGI,[47],> 50 µM
same,GI50,[48],> 50 µM
same,TGI,[48],> 50 µM
same,GI50,[49],> 50 µM
same,TGI,[49],> 50 µM
same,GI50,[50],> 50 µM
same,TGI,[50],> 50 µM
same,GI50,[51],> 50 µM
same,TGI,[51],> 50 µM
same,GI50,[3],> 50 µM
same,TGI,[3],> 50 µM
same,GI50,[52],> 50 µM
same,TGI,[52],> 50 µM
same,GI50,[53],> 50 µM
same,TGI,[53],> 50 µM
same,GI50,[54],> 50 µM
same,TGI,[54],> 50 µM
Nc1ncnc2c(C3OC(CO)C(O)C3O)nsc12 (stereo not given),TGI,[4],> 100 µM
same,TGI,[55],1.41 µM
same,TGI,[9],16.5 µM and > 100 µM
same,GI50,[56],1.52 µM
same,TGI,[56],7.5 µM
same,TGI,[19],> 100 µM
same,TGI,[57],> 75 µM
same,TGI,[24],> 100 µM
same,TGI,[30],> 100 µM
same,GI50,[37],4.6 µM
same,TGI,[40],> 100 µM
same,GI50,[46],3.25 µM
same,TGI,[46],20.3 µM
same,TGI,[48],> 100 µM
same,TGI,[49],> 100 µM
same,GI50,[50],< 0.0162 µM
same,TGI,[50],> 48.6 µM
same,TGI,[3],> 100 µM
